Active and inactive are the calls of the source. The rule behind the calls is not given here.
How the values were obtained:
Assay type in all cases: functional, organism-based
Conditions in all cases: Trachea
Pseudomonas aeruginosa [1] = test: Antimicrobial activity against Pseudomonas aeruginosa 65.38-3 tracheal isolates from mechanically ventilated tuberculosis patient
Pseudomonas aeruginosa [2] = test: Antimicrobial activity against Pseudomonas aeruginosa 65.38-4 tracheal isolates from mechanically ventilated tuberculosis patient
Pseudomonas aeruginosa [3] = test: Antimicrobial activity against Pseudomonas aeruginosa 1A9 tracheal isolates from mechanically ventilated tuberculosis patient
Pseudomonas aeruginosa [4] = test: Antimicrobial activity against Pseudomonas aeruginosa 1B9 tracheal isolates from mechanically ventilated tuberculosis patient
Pseudomonas aeruginosa [5] = test: Antimicrobial activity against Pseudomonas aeruginosa 2A1 tracheal isolates from mechanically ventilated tuberculosis patient
Pseudomonas aeruginosa [6] = test: Antimicrobial activity against Pseudomonas aeruginosa 2C1 tracheal isolates from mechanically ventilated tuberculosis patient
Pseudomonas aeruginosa [7] = test: Antimicrobial activity against Pseudomonas aeruginosa 2A2 tracheal isolates from mechanically ventilated tuberculosis patient
Pseudomonas aeruginosa [8] = test: Antimicrobial activity against Pseudomonas aeruginosa 2A3 tracheal isolates from mechanically ventilated tuberculosis patient
Pseudomonas aeruginosa [9] = test: Antimicrobial activity against Pseudomonas aeruginosa 2A5 tracheal isolates from mechanically ventilated tuberculosis patient
Pseudomonas aeruginosa [10] = test: Antimicrobial activity against Pseudomonas aeruginosa 2A6 tracheal isolates from mechanically ventilated tuberculosis patient
Pseudomonas aeruginosa [11] = test: Antimicrobial activity against Pseudomonas aeruginosa 2F6 tracheal isolates from mechanically ventilated tuberculosis patient
Pseudomonas aeruginosa [12] = test: Antimicrobial activity against Pseudomonas aeruginosa 2A7 tracheal isolates from mechanically ventilated tuberculosis patient
Pseudomonas aeruginosa [13] = test: Antimicrobial activity against Pseudomonas aeruginosa 2A9 tracheal isolates from mechanically ventilated tuberculosis patient
Pseudomonas aeruginosa [14] = test: Antimicrobial activity against Pseudomonas aeruginosa 3B1 tracheal isolates from mechanically ventilated tuberculosis patient
Pseudomonas aeruginosa [15] = test: Antimicrobial activity against Pseudomonas aeruginosa 65.68-1 tracheal isolates from mechanically ventilated tuberculosis patient
Pseudomonas aeruginosa [16] = test: Antimicrobial activity against Pseudomonas aeruginosa 65.68-2 tracheal isolates from mechanically ventilated tuberculosis patient
Pseudomonas aeruginosa [17] = test: Antimicrobial activity against Pseudomonas aeruginosa 65.68-3 tracheal isolates from mechanically ventilated tuberculosis patient
Pseudomonas aeruginosa [18] = test: Antimicrobial activity against Pseudomonas aeruginosa 65.68-4 tracheal isolates from mechanically ventilated tuberculosis patient
Pseudomonas aeruginosa [19] = test: Antimicrobial activity against Pseudomonas aeruginosa P21.21 tracheal isolates from mechanically ventilated tuberculosis patient
Pseudomonas aeruginosa [20] = test: Antimicrobial activity against Pseudomonas aeruginosa 65.18-1 tracheal isolates from mechanically ventilated tuberculosis patient
Pseudomonas aeruginosa [21] = test: Antimicrobial activity against Pseudomonas aeruginosa 65.18-3 tracheal isolates from mechanically ventilated tuberculosis patient
Pseudomonas aeruginosa [22] = test: Antimicrobial activity against Pseudomonas aeruginosa P21.23 tracheal isolates from mechanically ventilated tuberculosis patient
Pseudomonas aeruginosa [23] = test: Antimicrobial activity against Pseudomonas aeruginosa IA5 tracheal isolates from mechanically ventilated tuberculosis patient
Pseudomonas aeruginosa [24] = test: Antimicrobial activity against Pseudomonas aeruginosa IC7 tracheal isolates from mechanically ventilated tuberculosis patient
Pseudomonas aeruginosa [25] = test: Antimicrobial activity against Pseudomonas aeruginosa 65.33-2 tracheal isolates from mechanically ventilated tuberculosis patient
Pseudomonas aeruginosa [26] = test: Antimicrobial activity against Pseudomonas aeruginosa 65.33-3 tracheal isolates from mechanically ventilated tuberculosis patient
Pseudomonas aeruginosa [27] = test: Antimicrobial activity against Pseudomonas aeruginosa 65.36-3 tracheal isolates from mechanically ventilated tuberculosis patient
Pseudomonas aeruginosa [28] = test: Antimicrobial activity against Pseudomonas aeruginosa 65.36-4 tracheal isolates from mechanically ventilated tuberculosis patient
Pseudomonas aeruginosa [29] = test: Antimicrobial activity against Pseudomonas aeruginosa 65.38-1 tracheal isolates from mechanically ventilated tuberculosis patient
Pseudomonas aeruginosa [30] = test: Antimicrobial activity against Pseudomonas aeruginosa 65.38-2 tracheal isolates from mechanically ventilated tuberculosis patient
Pseudomonas aeruginosa [31] = test: Antimicrobial activity against Pseudomonas aeruginosa 2C2 tracheal isolates from mechanically ventilated tuberculosis patient
Pseudomonas aeruginosa [32] = test: Antimicrobial activity against Pseudomonas aeruginosa 2B5 tracheal isolates from mechanically ventilated tuberculosis patient
Pseudomonas aeruginosa [33] = test: Antimicrobial activity against Pseudomonas aeruginosa 65.18-2 tracheal isolates from mechanically ventilated tuberculosis patient
Pseudomonas aeruginosa [34] = test: Antimicrobial activity against Pseudomonas aeruginosa 65.18-4 tracheal isolates from mechanically ventilated tuberculosis patient
Pseudomonas aeruginosa [35] = test: Antimicrobial activity against Pseudomonas aeruginosa 65.33-1 tracheal isolates from mechanically ventilated tuberculosis patient
Pseudomonas aeruginosa [36] = test: Antimicrobial activity against Pseudomonas aeruginosa 65.33-4 tracheal isolates from mechanically ventilated tuberculosis patient
Pseudomonas aeruginosa [37] = test: Antimicrobial activity against Pseudomonas aeruginosa 1C9 tracheal isolates from mechanically ventilated tuberculosis patient
Pseudomonas aeruginosa [38] = test: Antimicrobial activity against Pseudomonas aeruginosa 15H5 tracheal isolates from mechanically ventilated chronic respiratory insufficiency patient
Pseudomonas aeruginosa [39] = test: Antimicrobial activity against Pseudomonas aeruginosa 65.36-1 tracheal isolates from mechanically ventilated tuberculosis patient
Pseudomonas aeruginosa [40] = test: Antimicrobial activity against Pseudomonas aeruginosa 65.36-2 tracheal isolates from mechanically ventilated tuberculosis patient
Pseudomonas aeruginosa [41] = test: Antimicrobial activity against Pseudomonas aeruginosa ID7 tracheal isolates from mechanically ventilated tuberculosis patient

| Compound | Activity (Pseudomonas aeruginosa [1]) | Activity (Pseudomonas aeruginosa [2]) | Activity (Pseudomonas aeruginosa [3]) | Activity (Pseudomonas aeruginosa [4]) | Activity (Pseudomonas aeruginosa [5]) | Activity (Pseudomonas aeruginosa [6]) | Activity (Pseudomonas aeruginosa [7]) | Activity (Pseudomonas aeruginosa [8]) | Activity (Pseudomonas aeruginosa [9]) | Activity (Pseudomonas aeruginosa [11]) | Activity (Pseudomonas aeruginosa [12]) | Activity (Pseudomonas aeruginosa [13]) | Activity (Pseudomonas aeruginosa [14]) | Activity (Pseudomonas aeruginosa [15]) | Activity (Pseudomonas aeruginosa [16]) | Activity (Pseudomonas aeruginosa [19]) | Activity (Pseudomonas aeruginosa [21]) | Activity (Pseudomonas aeruginosa [22]) | Activity (Pseudomonas aeruginosa [23]) | Activity (Pseudomonas aeruginosa [24]) | also measured |
| --- | --- | --- | --- | --- | --- | --- | --- | --- | --- | --- | --- | --- | --- | --- | --- | --- | --- | --- | --- | --- | --- |
| C[C@@H](O)[C@H]1C(=O)N2C(C(=O)O)=C(S[C@@H]3CN[C@H](C(=O)N(C)C)C3)[C@H](C)[C@H]12 | inactive | inactive | inactive | inactive | inactive | inactive | inactive | Active | Active | inactive | inactive | inactive | Active | inactive | inactive | Active | Active | Active | Active | Active | Activity (Pseudomonas aeruginosa [10]): inactive; Activity (Pseudomonas aeruginosa [17]): inactive; Activity (Pseudomonas aeruginosa [18]): inactive; Activity (Pseudomonas aeruginosa [20]): Active; Activity (Pseudomonas aeruginosa [25]): inactive; Activity (Pseudomonas aeruginosa [26]): inactive; Activity (Pseudomonas aeruginosa [27]): inactive; Activity (Pseudomonas aeruginosa [28]): inactive; Activity (Pseudomonas aeruginosa [29]): inactive; Activity (Pseudomonas aeruginosa [30]): inactive |
| C[C@H]1[C@H](NC(=O)/C(=N\OC(C)(C)C(=O)O)c2csc(N)n2)C(=O)N1S(=O)(=O)O | inactive | – | inactive | inactive | – | inactive | Active | Active | Active | inactive | inactive | inactive | Active | Active | Active | Active | Active | Active | Active | Active | Activity (Pseudomonas aeruginosa [31]): Active; Activity (Pseudomonas aeruginosa [32]): Active; Activity (Pseudomonas aeruginosa [10]): inactive; Activity (Pseudomonas aeruginosa [17]): Active; Activity (Pseudomonas aeruginosa [18]): Active; Activity (Pseudomonas aeruginosa [20]): Active; Activity (Pseudomonas aeruginosa [33]): Active; Activity (Pseudomonas aeruginosa [34]): Active; Activity (Pseudomonas aeruginosa [35]): Active; Activity (Pseudomonas aeruginosa [36]): Active; Activity (Pseudomonas aeruginosa [29]): inactive |
| NC[C@H]1O[C@H](O[C@H]2[C@H](O)[C@@H](O[C@H]3O[C@H](CO)[C@@H](O)[C@H](N)[C@H]3O)[C@H](N)C[C@@H]2N)[C@H](N)C[C@@H]1O | Active | Active | Active | – | Active | Active | Active | Active | Active | Active | Active | Active | Active | Active | Active | Active | Active | Active | Active | Active | Activity (Pseudomonas aeruginosa [37]): Active; Activity (Pseudomonas aeruginosa [31]): Active; Activity (Pseudomonas aeruginosa [32]): Active; Activity (Pseudomonas aeruginosa [10]): Active; Activity (Pseudomonas aeruginosa [17]): Active; Activity (Pseudomonas aeruginosa [18]): Active; Activity (Pseudomonas aeruginosa [38]): Active; Activity (Pseudomonas aeruginosa [20]): Active; Activity (Pseudomonas aeruginosa [33]): Active; Activity (Pseudomonas aeruginosa [34]): Active; Activity (Pseudomonas aeruginosa [35]): Active; Activity (Pseudomonas aeruginosa [25]): Active; Activity (Pseudomonas aeruginosa [26]): Active; Activity (Pseudomonas aeruginosa [36]): Active; Activity (Pseudomonas aeruginosa [39]): Active; Activity (Pseudomonas aeruginosa [40]): Active; Activity (Pseudomonas aeruginosa [27]): Active; Activity (Pseudomonas aeruginosa [28]): Active; Activity (Pseudomonas aeruginosa [30]): Active |
| CCN1CCN(C(=O)N[C@@H](C(=O)N[C@@H]2C(=O)N3[C@@H]2SC(C)(C)[C@@H]3C(=O)O)c2ccccc2)C(=O)C1=O | inactive | Active | inactive | inactive | inactive | inactive | Active | Active | Active | inactive | inactive | inactive | Active | Active | Active | Active | Active | Active | Active | Active | Activity (Pseudomonas aeruginosa [31]): Active; Activity (Pseudomonas aeruginosa [32]): Active; Activity (Pseudomonas aeruginosa [10]): inactive; Activity (Pseudomonas aeruginosa [17]): Active; Activity (Pseudomonas aeruginosa [18]): Active; Activity (Pseudomonas aeruginosa [20]): Active; Activity (Pseudomonas aeruginosa [33]): Active; Activity (Pseudomonas aeruginosa [34]): Active; Activity (Pseudomonas aeruginosa [41]): Active; Activity (Pseudomonas aeruginosa [35]): Active; Activity (Pseudomonas aeruginosa [25]): Active; Activity (Pseudomonas aeruginosa [26]): inactive; Activity (Pseudomonas aeruginosa [36]): Active; Activity (Pseudomonas aeruginosa [39]): Active; Activity (Pseudomonas aeruginosa [40]): Active; Activity (Pseudomonas aeruginosa [27]): Active; Activity (Pseudomonas aeruginosa [28]): inactive; Activity (Pseudomonas aeruginosa [29]): inactive; Activity (Pseudomonas aeruginosa [30]): inactive |
| CCN[C@@H]1C[C@H](N)[C@@H](O[C@H]2OC(CN)=CC[C@H]2N)[C@H](O)[C@H]1O[C@H]1OC[C@](C)(O)[C@H](NC)[C@H]1O | inactive | inactive | Active | inactive | Active | inactive | Active | Active | Active | inactive | inactive | inactive | Active | Active | inactive | Active | Active | Active | Active | Active | Activity (Pseudomonas aeruginosa [31]): Active; Activity (Pseudomonas aeruginosa [33]): Active; Activity (Pseudomonas aeruginosa [34]): Active; Activity (Pseudomonas aeruginosa [35]): Active; Activity (Pseudomonas aeruginosa [28]): inactive; Activity (Pseudomonas aeruginosa [29]): inactive; Activity (Pseudomonas aeruginosa [30]): inactive |
